Consider 59 molecules from patent US20260158017A1, “KIF18A INHIBITOR” (WIGEN BIOMEDICINE TECHNOLOGY (SHANGHAI) CO., LTD., priority 2021, published 2026).

T1 sequence (Q8NI77 1-467): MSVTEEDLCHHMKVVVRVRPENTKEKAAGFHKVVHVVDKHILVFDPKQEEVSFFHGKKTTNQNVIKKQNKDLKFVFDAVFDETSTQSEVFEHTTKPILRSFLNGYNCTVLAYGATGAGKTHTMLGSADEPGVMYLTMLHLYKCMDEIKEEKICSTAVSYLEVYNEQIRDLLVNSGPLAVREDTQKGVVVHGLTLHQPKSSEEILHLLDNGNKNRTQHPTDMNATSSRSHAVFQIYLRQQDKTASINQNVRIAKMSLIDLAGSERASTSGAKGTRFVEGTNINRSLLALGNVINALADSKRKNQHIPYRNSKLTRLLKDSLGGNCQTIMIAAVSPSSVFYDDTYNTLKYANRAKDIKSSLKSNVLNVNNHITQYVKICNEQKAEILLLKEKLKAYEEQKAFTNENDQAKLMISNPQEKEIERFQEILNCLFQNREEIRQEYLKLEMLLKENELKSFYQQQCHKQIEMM
T1 sequence (P02550 whole entry partner): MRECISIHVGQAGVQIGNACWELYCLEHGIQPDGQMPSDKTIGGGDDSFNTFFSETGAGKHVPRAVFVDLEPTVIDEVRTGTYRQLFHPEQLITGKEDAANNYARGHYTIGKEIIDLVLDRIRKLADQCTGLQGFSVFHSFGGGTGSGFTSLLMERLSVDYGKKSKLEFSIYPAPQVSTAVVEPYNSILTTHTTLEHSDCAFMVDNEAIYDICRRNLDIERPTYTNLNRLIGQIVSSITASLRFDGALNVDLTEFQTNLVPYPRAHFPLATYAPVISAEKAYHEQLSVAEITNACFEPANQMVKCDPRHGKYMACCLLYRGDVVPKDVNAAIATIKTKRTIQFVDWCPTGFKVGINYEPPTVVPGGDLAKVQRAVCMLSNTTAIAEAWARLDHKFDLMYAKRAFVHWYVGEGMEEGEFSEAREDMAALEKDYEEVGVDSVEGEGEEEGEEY
T1 sequence (P02554 whole entry partner): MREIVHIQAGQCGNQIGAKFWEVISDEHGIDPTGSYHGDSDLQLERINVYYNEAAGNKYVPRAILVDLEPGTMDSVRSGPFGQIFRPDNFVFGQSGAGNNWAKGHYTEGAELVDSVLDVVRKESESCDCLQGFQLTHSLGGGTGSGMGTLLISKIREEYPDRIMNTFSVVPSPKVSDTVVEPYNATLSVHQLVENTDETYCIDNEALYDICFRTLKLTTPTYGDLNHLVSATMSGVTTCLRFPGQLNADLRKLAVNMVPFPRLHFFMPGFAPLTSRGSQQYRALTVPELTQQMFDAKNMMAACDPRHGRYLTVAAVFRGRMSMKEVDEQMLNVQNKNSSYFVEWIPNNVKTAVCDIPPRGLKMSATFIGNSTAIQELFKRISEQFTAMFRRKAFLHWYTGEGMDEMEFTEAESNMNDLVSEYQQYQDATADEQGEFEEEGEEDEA

This experiment addresses T1, Recombinant human KIF18A (1-467His-tagged) protein (Homo sapiens, UniProt Q8NI77).
T1 construct: Recombinant human KIF18A (1-467His-tagged) protein; His; made in house
Briefly: KIF18A enzyme assay (microtubule-stimulated ATPase activity, ADP-Glo). The experiment is classed as biochemical. Conditions: 30 nM KIF18A, 75 μM ATP, 30 μg/mL pig microtubules; read-out: Inhibitory activity against KIF18A IC50. The procedure, abridged:
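Buffer 15 mM Tris pH 7.5, 10 mM MgCl2, 0.01% Pluronic F-68, 1 μM paclitaxel, 30 μg/mL pig microtubules; reactions at room temperature. IC50 from inhibition relative to DMSO.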
As to `O=C(Nc1ccc(OCF)c(OCCC(F)(F)F)c1)c1cnc(NS(=O)(=O)CCO)cc1N1CCC2(CC1)CC2` [Compound 453], the IC50 was not above 100 nM. The result for `O=C(Nc1ccc(OCF)c(N2CCC3(CC3)C2)c1)c1cnc(NS(=O)(=O)CCO)cc1N1CCC2(CC1)CC2` [Compound 454] reads not above 100 nM; that for `O=C(Nc1ccc(OCF)c(OC2CCC2)c1)c1cnc(NS(=O)(=O)CCO)cc1N1CCC2(CC1)CC2` [Compound 455], not above 100 nM; that for `CC1(F)CCN(c2cc(NC(=O)c3cnc(NS(=O)(=O)CCO)cc3N3CCC4(CC3)CC4)ccc2OCF)C1` (centres unmarked) [Compound 456], not above 100 nM. The result for `O=C(Nc1ccc(OCF)c(N2CCC(F)CC2)c1)c1cnc(NS(=O)(=O)CCO)cc1N1CCC2(CC1)CC2` [Compound 457] reads not above 100 nM; that for `O=C(Nc1ccc(OCF)c(N2CC3CC3C2)c1)c1cnc(NS(=O)(=O)CCO)cc1N1CCC2(CC1)CC2` (centres unmarked) [Compound 458], not above 100 nM. Next, `CC(C)(CO)Nc1cc(NC(=O)c2cnc(NS(=O)(=O)CCO)cc2N2CCC3(CC2)CC3)ccc1OCF` [Compound 459]: not above 100 nM; `O=C(Nc1ccc(OCF)c(N2CCOCC2)c1)c1cnc(NS(=O)(=O)CCO)cc1N1CCC2(CC1)CC2` [Compound 460]: not above 100 nM. Turning to `C[C@@H](CO)S(=O)(=O)Nc1cc(N2CCC3(CC2)CC3)c(C(=O)Nc2ccc(OCF)c(N3CCC(F)(F)CC3)c2)cn1` [Compound 461], the IC50 is not above 100 nM. The result for `C[C@H](CO)S(=O)(=O)Nc1cc(N2CCC3(CC2)CC3)c(C(=O)Nc2ccc(OCF)c(N3CCC(F)(F)CC3)c2)cn1` [Compound 462] reads not above 100 nM. Regarding `C[C@@H]1CN(c2cc(NC(=O)c3cnc(NS(=O)(=O)[C@@H](C)CO)cc3N3CCC4(CC3)CC4)ccc2OCF)CCO1` [Compound 463], the IC50 was not above 100 nM. The result for `C[C@@H]1CN(c2cc(NC(=O)c3cnc(NS(=O)(=O)[C@H](C)CO)cc3N3CCC4(CC3)CC4)ccc2OCF)CCO1` [Compound 464] reads not above 100 nM. The result for `O=C(Nc1ccc(OCF)c(N2CCC(F)(F)CC2)c1)c1cnc(S(=O)(=O)NCCO)cc1N1CCC2(CC1)CC2` [Compound 465] reads not above 100 nM.

Regarding `C[C@@H]1CN(c2cc(NC(=O)c3cnc(S(=O)(=O)NCCO)cc3N3CCC4(CC3)CC4)ccc2OCF)CCO1` [Compound 466], the IC50 was not above 100 nM. The result for `C[C@H]1CN(c2cc(NC(=O)c3cnc(S(=O)(=O)NCCO)cc3N3CCC4(CC3)CC4)ccc2OCF)CCO1` [Compound 467] reads not above 100 nM; that for `O=C(Nc1ccc(OCF)c(N2CC(F)(F)C2)c1)c1cnc(S(=O)(=O)NCCO)cc1N1CCC2(CC1)CC2` [Compound 468], not above 100 nM. Regarding `O=C(Nc1ccc(OCF)c(OCCC(F)(F)F)c1)c1cnc(S(=O)(=O)NCCO)cc1N1CCC2(CC1)CC2` [Compound 469], the IC50 was not above 100 nM.

As to `O=C(Nc1ccc(OCF)c(N2CCC3(CC3)C2)c1)c1cnc(S(=O)(=O)NCCO)cc1N1CCC2(CC1)CC2` [Compound 470], the IC50 is not above 100 nM.

Regarding `O=C(Nc1ccc(OCF)c(OC2CCC2)c1)c1cnc(S(=O)(=O)NCCO)cc1N1CCC2(CC1)CC2` [Compound 471], the IC50 is not above 100 nM. For the molecule `CC1(F)CCN(c2cc(NC(=O)c3cnc(S(=O)(=O)NCCO)cc3N3CCC4(CC3)CC4)ccc2OCF)C1` (centres unmarked) [Compound 472], the IC50 was not above 100 nM. The result for `O=C(Nc1ccc(OCF)c(N2CCC(F)CC2)c1)c1cnc(S(=O)(=O)NCCO)cc1N1CCC2(CC1)CC2` [Compound 473] reads not above 100 nM; that for `O=C(Nc1ccc(OCF)c(N2CC3CC3C2)c1)c1cnc(S(=O)(=O)NCCO)cc1N1CCC2(CC1)CC2` (centres unmarked) [Compound 474], not above 100 nM. For `CC(C)(CO)Nc1cc(NC(=O)c2cnc(S(=O)(=O)NCCO)cc2N2CCC3(CC2)CC3)ccc1OCF` [Compound 475], the IC50 was not above 100 nM. Next, `O=C(Nc1ccc(OCF)c(N2CCOCC2)c1)c1cnc(S(=O)(=O)NCCO)cc1N1CCC2(CC1)CC2` [Compound 476]: not above 100 nM; `C[C@@H](CO)NS(=O)(=O)c1cc(N2CCC3(CC2)CC3)c(C(=O)Nc2ccc(OCF)c(N3CCC(F)(F)CC3)c2)cn1` [Compound 477]: not above 100 nM; `C[C@H](CO)NS(=O)(=O)c1cc(N2CCC3(CC2)CC3)c(C(=O)Nc2ccc(OCF)c(N3CCC(F)(F)CC3)c2)cn1` [Compound 478]: not above 100 nM. The result for `C[C@@H]1CN(c2cc(NC(=O)c3cnc(S(=O)(=O)N[C@@H](C)CO)cc3N3CCC4(CC3)CC4)ccc2OCF)CCO1` [Compound 479] reads not above 100 nM; that for `C[C@H](CO)NS(=O)(=O)c1cc(N2CCC3(CC2)CC3)c(C(=O)Nc2ccc(OCF)c(N3CCO[C@H](C)C3)c2)cn1` [Compound 480], not above 100 nM. Next, `O=C(Nc1ccc(OCF)c(N2CCC(F)(F)CC2)n1)c1cnc(NS(=O)(=O)CCO)cc1N1CCC2(CC1)CC2` [Compound 481]: not above 100 nM; `C[C@@H]1CN(c2nc(NC(=O)c3cnc(NS(=O)(=O)CCO)cc3N3CCC4(CC3)CC4)ccc2OCF)CCO1` [Compound 482]: not above 100 nM. For the molecule `C[C@H]1CN(c2nc(NC(=O)c3cnc(NS(=O)(=O)CCO)cc3N3CCC4(CC3)CC4)ccc2OCF)CCO1` [Compound 483], the IC50 was not above 100 nM. Next, `O=C(Nc1ccc(OCF)c(N2CC(F)(F)C2)n1)c1cnc(NS(=O)(=O)CCO)cc1N1CCC2(CC1)CC2` [Compound 484]: not above 100 nM. Next, `O=C(Nc1ccc(OCF)c(OCCC(F)(F)F)n1)c1cnc(NS(=O)(=O)CCO)cc1N1CCC2(CC1)CC2` [Compound 485]: not above 100 nM.

Regarding `O=C(Nc1ccc(OCF)c(N2CCC3(CC3)C2)n1)c1cnc(NS(=O)(=O)CCO)cc1N1CCC2(CC1)CC2` [Compound 486], the IC50 was not above 100 nM.

Regarding `O=C(Nc1ccc(OCF)c(OC2CCC2)n1)c1cnc(NS(=O)(=O)CCO)cc1N1CCC2(CC1)CC2` [Compound 487], the IC50 is not above 100 nM. Next, `CC1(F)CCN(c2nc(NC(=O)c3cnc(NS(=O)(=O)CCO)cc3N3CCC4(CC3)CC4)ccc2OCF)C1` (centres unmarked) [Compound 488]: not above 100 nM; `O=C(Nc1ccc(OCF)c(N2CCC(F)CC2)n1)c1cnc(NS(=O)(=O)CCO)cc1N1CCC2(CC1)CC2` [Compound 489]: not above 100 nM; `O=C(Nc1ccc(OCF)c(N2CC3CC3C2)n1)c1cnc(NS(=O)(=O)CCO)cc1N1CCC2(CC1)CC2` (centres unmarked) [Compound 490]: not above 100 nM.

In the case of `CC(C)(CO)Nc1nc(NC(=O)c2cnc(NS(=O)(=O)CCO)cc2N2CCC3(CC2)CC3)ccc1OCF` [Compound 491], the IC50 is not above 100 nM. With `O=C(Nc1ccc(OCF)c(N2CCOCC2)n1)c1cnc(NS(=O)(=O)CCO)cc1N1CCC2(CC1)CC2` [Compound 492], the IC50 was not above 100 nM. The result for `C[C@@H](CO)S(=O)(=O)Nc1cc(N2CCC3(CC2)CC3)c(C(=O)Nc2ccc(OCF)c(N3CCC(F)(F)CC3)n2)cn1` [Compound 493] reads not above 100 nM; that for `C[C@H](CO)S(=O)(=O)Nc1cc(N2CCC3(CC2)CC3)c(C(=O)Nc2ccc(OCF)c(N3CCC(F)(F)CC3)n2)cn1` [Compound 494], not above 100 nM; that for `C[C@@H]1CN(c2nc(NC(=O)c3cnc(NS(=O)(=O)[C@@H](C)CO)cc3N3CCC4(CC3)CC4)ccc2OCF)CCO1` [Compound 495], not above 100 nM. As for `C[C@@H]1CN(c2nc(NC(=O)c3cnc(NS(=O)(=O)[C@H](C)CO)cc3N3CCC4(CC3)CC4)ccc2OCF)CCO1` [Compound 496], the IC50 was not above 100 nM. Next, `O=C(Nc1ccc(OCF)c(N2CCC(F)(F)CC2)n1)c1cnc(S(=O)(=O)NCCO)cc1N1CCC2(CC1)CC2` [Compound 497]: not above 100 nM.

Turning to `C[C@@H]1CN(c2nc(NC(=O)c3cnc(S(=O)(=O)NCCO)cc3N3CCC4(CC3)CC4)ccc2OCF)CCO1` [Compound 498], the IC50 is not above 100 nM. Next, `C[C@H]1CN(c2nc(NC(=O)c3cnc(S(=O)(=O)NCCO)cc3N3CCC4(CC3)CC4)ccc2OCF)CCO1` [Compound 499]: not above 100 nM; `O=C(Nc1ccc(OCF)c(N2CC(F)(F)C2)n1)c1cnc(S(=O)(=O)NCCO)cc1N1CCC2(CC1)CC2` [Compound 500]: not above 100 nM.

Turning to `O=C(Nc1ccc(OCF)c(OCCC(F)(F)F)n1)c1cnc(S(=O)(=O)NCCO)cc1N1CCC2(CC1)CC2` [Compound 501], the IC50 was not above 100 nM. With `O=C(Nc1ccc(OCF)c(N2CCC3(CC3)C2)n1)c1cnc(S(=O)(=O)NCCO)cc1N1CCC2(CC1)CC2` [Compound 502], the IC50 is not above 100 nM.

For `O=C(Nc1ccc(OCF)c(OC2CCC2)n1)c1cnc(S(=O)(=O)NCCO)cc1N1CCC2(CC1)CC2` [Compound 503], the IC50 is not above 100 nM.

`CC1(F)CCN(c2nc(NC(=O)c3cnc(S(=O)(=O)NCCO)cc3N3CCC4(CC3)CC4)ccc2OCF)C1` (centres unmarked) [Compound 504]: the IC50 was not above 100 nM. Next, `O=C(Nc1ccc(OCF)c(N2CCC(F)CC2)n1)c1cnc(S(=O)(=O)NCCO)cc1N1CCC2(CC1)CC2` [Compound 505]: not above 100 nM; `O=C(Nc1ccc(OCF)c(N2CC3CC3C2)n1)c1cnc(S(=O)(=O)NCCO)cc1N1CCC2(CC1)CC2` (centres unmarked) [Compound 506]: not above 100 nM; `CC(C)(CO)Nc1nc(C(=O)Nc2cnc(S(=O)(=O)NCCO)cc2N2CCC3(CC2)CC3)ccc1OCF` [Compound 507]: not above 100 nM.

`O=C(Nc1ccc(OCF)c(N2CCOCC2)n1)c1cnc(S(=O)(=O)NCCO)cc1N1CCC2(CC1)CC2` [Compound 508]: the IC50 was not above 100 nM. The result for `C[C@@H](CO)NS(=O)(=O)c1cc(N2CCC3(CC2)CC3)c(C(=O)Nc2ccc(OCF)c(N3CCC(F)(F)CC3)n2)cn1` [Compound 509] reads not above 100 nM; that for `C[C@H](CO)NS(=O)(=O)c1cc(N2CCC3(CC2)CC3)c(C(=O)Nc2ccc(OCF)c(N3CCC(F)(F)CC3)n2)cn1` [Compound 510], not above 100 nM. Next, `C[C@@H]1CN(c2nc(NC(=O)c3cnc(S(=O)(=O)N[C@@H](C)CO)cc3N3CCC4(CC3)CC4)ccc2OCF)CCO1` [Compound 511]: not above 100 nM.
